Legend:
[1] = target: T1, TGFBR1 (Homo sapiens, UniProt P36897); experiment: Kinase activity assay (HTRF or ADP-Glo); type: biochemical
T1 sequence (P36897 34-503): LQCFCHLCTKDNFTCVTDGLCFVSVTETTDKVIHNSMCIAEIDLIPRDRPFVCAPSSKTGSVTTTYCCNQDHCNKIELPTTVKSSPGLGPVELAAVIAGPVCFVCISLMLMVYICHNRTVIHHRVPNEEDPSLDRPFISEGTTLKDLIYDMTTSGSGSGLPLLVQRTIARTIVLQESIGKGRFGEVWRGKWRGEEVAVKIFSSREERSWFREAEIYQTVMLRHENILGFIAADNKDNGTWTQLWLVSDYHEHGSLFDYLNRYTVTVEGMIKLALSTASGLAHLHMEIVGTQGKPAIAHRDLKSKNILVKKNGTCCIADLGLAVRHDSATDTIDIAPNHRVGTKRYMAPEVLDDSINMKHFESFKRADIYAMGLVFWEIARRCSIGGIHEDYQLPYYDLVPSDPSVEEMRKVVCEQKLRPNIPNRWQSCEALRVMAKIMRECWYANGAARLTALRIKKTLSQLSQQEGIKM
Method: (§1) A total of 330 kinase candidates (15-50 nM, 2.5 µL) were mixed with compound II-1 (2.5 mM, 25 nL, prepared in DMSO) and incubated at 25 °C for 10 minutes. Then, a mixture of kinase peptide substrate (0.2 mg/mL; supplier: GenScript) and ATP (10-60 µM; supplier: Promega; product number: V915B) was added (total 2.5 µL, prepared in assay buffer), and the reaction was carried out at 25 °C for 60-120 minutes. Finally, the reaction products were quantified using HTRF1 or ADP-Glo2 methods. During the kinase activity assay, the consumption of each substrate was kept below 10%, and each kinase assay was performed in duplicate.

[2] = target: T2, BMPR2 (Homo sapiens, UniProt Q13873); experiment: Kinase activity assay (HTRF or ADP-Glo); type: biochemical
T2 sequence (Q13873 27-1038): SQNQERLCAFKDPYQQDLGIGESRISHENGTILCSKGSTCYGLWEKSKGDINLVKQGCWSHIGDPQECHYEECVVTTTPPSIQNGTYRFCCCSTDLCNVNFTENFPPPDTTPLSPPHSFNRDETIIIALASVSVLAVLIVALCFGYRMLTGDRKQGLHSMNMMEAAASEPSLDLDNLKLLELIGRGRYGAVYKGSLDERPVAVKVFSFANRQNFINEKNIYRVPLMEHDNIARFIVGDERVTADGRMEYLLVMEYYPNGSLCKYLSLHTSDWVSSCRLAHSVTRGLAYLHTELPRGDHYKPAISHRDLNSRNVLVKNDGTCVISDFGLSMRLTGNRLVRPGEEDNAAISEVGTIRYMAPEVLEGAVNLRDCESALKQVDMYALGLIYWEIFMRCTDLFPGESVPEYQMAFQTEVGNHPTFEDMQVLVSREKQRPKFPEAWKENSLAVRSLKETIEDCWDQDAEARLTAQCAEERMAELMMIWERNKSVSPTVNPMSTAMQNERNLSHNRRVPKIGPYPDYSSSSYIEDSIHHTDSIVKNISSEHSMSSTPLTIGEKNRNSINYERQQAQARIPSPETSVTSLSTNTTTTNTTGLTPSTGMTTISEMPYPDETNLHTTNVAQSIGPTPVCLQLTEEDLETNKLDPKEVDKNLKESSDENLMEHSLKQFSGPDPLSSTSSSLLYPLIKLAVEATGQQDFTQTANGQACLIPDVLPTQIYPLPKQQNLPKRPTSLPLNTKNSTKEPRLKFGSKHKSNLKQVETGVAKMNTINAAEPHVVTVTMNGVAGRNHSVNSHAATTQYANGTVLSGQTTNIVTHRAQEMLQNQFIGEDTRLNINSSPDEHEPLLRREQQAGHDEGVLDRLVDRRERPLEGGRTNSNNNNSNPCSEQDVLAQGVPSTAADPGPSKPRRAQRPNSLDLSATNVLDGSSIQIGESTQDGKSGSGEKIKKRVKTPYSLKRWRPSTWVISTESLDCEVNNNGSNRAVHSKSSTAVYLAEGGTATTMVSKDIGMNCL
Method: as §1

[3] = same concentration as in the 330 kinase screen

- inhibition of TGFBR1 kinase ([1]; different concentrations, up to 12.5 µM, threefold serial dilution, Figure 1B): no inhibition
- inhibition of kinase activity of TGFBR1 [1, 3]: did not inhibit
- inhibition of BMPR2 kinase ([2]; different concentrations, up to 12.5 µM, threefold serial dilution, Figure 1C): no inhibition
- inhibition of kinase activity of BMPR2 [2, 3]: did not inhibit
Structure (SMILES): O=C1CN(C(=O)c2n[nH]c3c2CCC3)[C@H]2CCCC[C@@H]2N1 [II-1, (4aS,8aS)-4-(1,4,5,6-tetrahydrocyclopenta[c]pyrazole-3-carbonyl)octahydroquinoxalin-2(1H)-one]

From EP4717694A1, “PYRAZOLFORMYL PIPERAZINONE COMPOUND, PHARMACEUTICAL COMPOSITION AND USE THEREOF” (Iregene Therapeutics Co., Ltd., priority 2023, dated 2024)
